Reference: patent US20150323520A1, “DIAGNOSIS OF KIDNEY TRANSPLANT ACUTE REJECTION” (The Trustees of the Stevens Institute of Technology, priority 2014, published 2015)

Assay: Mannitol in urine of kidney transplant patients the day after surgery (SERS / ESI-MS)
Type: in vivo
Text: FIG. 2 is a graph 200 showing SERS spectra for patients who have received kidney transplants and are experiencing AR. The graph 200 plots Raman intensity, in arbitrary units (“a.u.”), along a vertical axis 210 against Raman shift, in cm^−1, along a horizontal axis 220. As a baseline, the chart 200 includes a background spectrum 230 that may be measured when a SERS sensor (e.g., the device 100 of FIG. 1) is immersed in water. The chart 200 also includes three SERS spectra 240, 250, 260 that may be measured when the same SERS sensor is immersed in urine samples of three AR patients. It may be observed that each of the three SERS spectra 240, 250, 260 includes a corresponding peak 242, 252, 262, at a value of about 1360 cm^−1 along the horizontal axis 220. FIG. 3 is a graph 300 showing SERS spectra for patients who have received kidney transplants and are not experiencing AR. The graph 300 plots Raman intensity, in arbitrary units (“a.u.”), along a vertical axis 310 against Raman shift, in cm^−1, along a horizontal axis 320. As a baseline, the chart 300 includes a background spectrum 330 that may be measured when a SERS sensor (e.g., the device 100 of FIG. 1) is immersed in water (e.g., the same background spectrum as is shown in FIG. 2). The chart 300 also includes three SERS spectra 340, 350, 360 that may be measured when the same SERS sensor is immersed in urine samples of three kidney transplant recipients who are not experiencing AR. It may be observed that the three SERS spectra 340, 350, 360 lack a peak at a value of 1360 cm^−1 along the horizontal axis 320. […] The chart 500 includes a SERS spectrum 530 measured when a SERS sensor (e.g., the device 100 of FIG. 1) is immersed in a urine sample of a kidney transplant recipient who is experiencing graft failure. […] The spectra 610, 620, 630 plot intensity, an expression of relative abundance expressed as a percentage, along a vertical axis 640 against mass-to-charge ratio m/z, an expression of the ratio of atomic mass to charge number, which is a dimensionless quantity, along a horizontal axis 650. […]

## OC[C@@H](O)[C@@H](O)[C@H](O)[C@H](O)CO [mannitol]
Patients experiencing acute rejection (AR), urine 24 hours after surgery, mannitol (e.g., 20 grams) given during kidney transplant surgery
  mannitol in the urine: high levels
Patients experiencing graft failure, SERS peak at 1360 cm^-1 in urine (FIG. 5)
  metabolism of mannitol: do not metabolize mannitol well
Transplant patients whose surgery is successful (no AR), urine 24 hours after surgery, mannitol (e.g., 20 grams) given during kidney transplant surgery
  mannitol in patients' urine: barely detectable
